Assay results: US20250388565A1, “ESTROGEN RECEPTOR ALPHA DEGRADERS AND METHODS OF USE THEREOF” (Relay Therapeutics, Inc., priority 2022, published 2025)

biological target: T1, ERα protein (HiBiT-tagged) in ESR1_HiBiT KI MCF7 cells (Homo sapiens, UniProt P03372); test: Nano Glo HiBiT Lytic Degradation Assay; type: cell-based; conditions: 6 hours with compound, 14-point dose response 1:3, bell-shape curve fit, half-maximal effect of first Hill model, read-out: MCF7 ESR1 HiBiT - (DC50)
T1 sequence (P03372 1-595): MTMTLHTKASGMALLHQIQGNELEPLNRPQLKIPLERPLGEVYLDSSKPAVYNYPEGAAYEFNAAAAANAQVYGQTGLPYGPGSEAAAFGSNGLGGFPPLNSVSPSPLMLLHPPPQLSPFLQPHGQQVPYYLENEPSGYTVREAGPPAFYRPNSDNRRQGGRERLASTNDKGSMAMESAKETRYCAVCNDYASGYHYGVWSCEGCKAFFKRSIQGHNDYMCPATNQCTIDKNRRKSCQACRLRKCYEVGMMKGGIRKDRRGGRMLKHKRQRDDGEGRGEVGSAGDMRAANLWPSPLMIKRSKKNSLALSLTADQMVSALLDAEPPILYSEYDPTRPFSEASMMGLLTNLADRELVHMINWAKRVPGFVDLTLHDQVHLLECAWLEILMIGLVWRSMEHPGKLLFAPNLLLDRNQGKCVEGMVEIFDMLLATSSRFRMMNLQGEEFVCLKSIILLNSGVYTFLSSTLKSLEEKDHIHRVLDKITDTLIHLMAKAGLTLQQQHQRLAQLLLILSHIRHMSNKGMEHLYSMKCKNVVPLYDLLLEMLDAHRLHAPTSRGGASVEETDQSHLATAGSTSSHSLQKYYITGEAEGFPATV
In short: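 HiBiT-tagged endogenous ERα remaining in MCF7 knock-in cells was quantified by lytic luminescence after a 6 h treatment. DC50 values derive from a bell-shaped curve, taken at the first Hill component's half-maximal effect.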

DC50 [nM] | Structure (SMILES)
0.43 | O=C1CC[C@H](N2Cc3cc(N4CCN(CC5CCN(c6ccc([C@@H]7c8ccc(O)cc8CC[C@@]78CCCc7ccccc78)cc6)CC5)CC4)ccc3C2=O)C(=O)N1 [Compound I-264, (S)-3-(5-(4-((1-(4-((1S,1′S)-6′-hydroxy-3,3′,4,4′-tetrahydro-1′H,2H-1,2′-spirobi[naphthalen]′-yl)phenyl)piperidin-4-yl)methyl)piperazin-1-yl)-1-oxoisoindolin-2-yl)piperidine-2,6-dione]
4 | O=C1CC[C@H](N2Cc3cc(N4CCN(CC5CCN(c6ccc([C@H]7c8ccc(O)cc8CO[C@]78CCc7ccccc78)cc6)CC5)CC4)ccc3C2=O)C(=O)N1 [Compound I-267, (S)-3-(5-(4-((1-(4-((1R,4′S)-7′-hydroxy-2,3-dihydrospiro[indene-1,3′-isochroman]-4′-yl)phenyl)piperidin-4-yl)methyl)piperazin-1-yl)-1-oxoisoindolin-2-yl)piperidine-2,6-dione]
≥ 10000 | C[C@H]1OC2(CCCCC2)[C@@H](c2ccc(N3CCC(CN4CCN(c5ccc6c(c5)CN([C@H]5CCC(=O)NC5=O)C6=O)CC4)CC3)cc2)c2ccc(O)cc21 [Compound I-268, (S)-3-(5-(4-((1-(4-((1′R,4′S)-7′-hydroxy-1′-methylspiro[cyclohexane-1,3′-isochroman]-4′-yl)phenyl)piperidin-4-yl)methyl)piperazin-1-yl)-1-oxoisoindolin-2-yl)piperidine-2,6-dione]
1 | O=C1CC(N2Cc3cc(N4CCN(CC5CCN(c6ccc([C@@H]7c8ccc(O)cc8CC[C@@H]7c7ccccc7)cc6)CC5)CC4)ccc3C2=O)C(=O)N1 (stereo partly drawn) [Compound I-274, 3-(5-(4-((1-(4-((1R,2S)-6-hydroxy-2-phenyl-1,2,3,4-tetrahydronaphthalen-1-yl)phenyl)piperidin-4-yl)methyl)piperazin-1-yl)-1-oxoisoindolin-2-yl) pyrrolidine-2,5-dione]
0.7 | O=C1CCN(c2ccc(N3CCC4(CCN(CC5CCN(c6ccc([C@@H]7c8ccc(O)cc8CC[C@@H]7c7ccccc7)cc6)CC5)C4)CC3)cc2)C(=O)N1 [Compound I-291, 1-(4-(2-((1-(4-((1R,2S)-6-hydroxy-2-phenyl-1,2,3,4-tetrahydronaphthalen-1-yl)phenyl)piperidin-4-yl)methyl)-2,8-diazaspiro[4.5]decan-8-yl)phenyl)dihydropyrimidine-2,4 (1H,3H)-dione]
0.73 | O=C1CCN(c2ccc(N3CCC4(CCN(CC5CCN(c6ccc([C@@H]7c8ccc(O)cc8C(F)(F)C[C@@H]7c7ccccc7)cc6)CC5)C4)CC3)cc2)C(=O)N1 [Compound I-292, 1-(4-(2-((1-(4-((1R,2S)-4,4-difluoro-6-hydroxy-2-phenyl-1,2,3,4-tetrahydronaphthalen-1-yl)phenyl)piperidin-4-yl)methyl)-2,8-diazaspiro[4.5]decan-8-yl)phenyl)dihydropyrimidine-2,4 (1H,3H)-dione]
0.52 | Cc1cc(N2CCC3(CCN(CC4CCN(c5ccc([C@@H]6c7ccc(O)cc7CC[C@@H]6c6ccccc6)cc5)CC4)C3)CC2)ccc1N1CCC(=O)NC1=O [Compound I-293]
1 | Cn1nc(N2CCC(=O)NC2=O)c2ccc(N3CCN(CC4CCN(c5ccc([C@@H]6c7ccc(O)cc7CC[C@@H]6c6ccccc6)cc5)CC4)CC3)cc21 [Compound I-299, 1-(6-(4-((1-(4-((1R,2S)-6-hydroxy-2-phenyl-1,2,3,4-tetrahydronaphthalen-1-yl)phenyl)piperidin-4-yl)methyl)piperazin-1-yl)-1-methyl-1H-indazol-3-yl)dihydropyrimidine-2,4 (1H,3H)-dione]
3300 | Cn1nc(N2CCC(=O)NC2=O)c2ccc(N3CCN(CC4CCN(c5ccc([C@@H]6c7ccc(O)cc7C(F)(F)C[C@@H]6c6ccccc6)cc5)CC4)CC3)cc21 [Compound I-300, 1-(6-(4-((1-(4-((1R,2S)-4,4-difluoro-6-hydroxy-2-phenyl-1,2,3,4-tetrahydronaphthalen-1-yl)phenyl)piperidin-4-yl)methyl)piperazin-1-yl)-1-methyl-1H-indazol-3-yl)dihydropyrimidine-2,4 (1H,3H)-dione]
